The source made the active and inactive calls.
How the values were obtained:
[1] = target: Glucose-6-phosphate 1-dehydrogenase (Homo sapiens, UniProt P11413); test: human G6PD enzyme inhibitors, dose response, selectivity assay for P. falciparum G6PD inhibitor project, biochemical, fluorescence (AID 504792); type: functional
[2] = target: T1, Apoptotic protease-activating factor 1 (Homo sapiens, UniProt O14727); type: functional
T1 sequence (O14727 whole entry): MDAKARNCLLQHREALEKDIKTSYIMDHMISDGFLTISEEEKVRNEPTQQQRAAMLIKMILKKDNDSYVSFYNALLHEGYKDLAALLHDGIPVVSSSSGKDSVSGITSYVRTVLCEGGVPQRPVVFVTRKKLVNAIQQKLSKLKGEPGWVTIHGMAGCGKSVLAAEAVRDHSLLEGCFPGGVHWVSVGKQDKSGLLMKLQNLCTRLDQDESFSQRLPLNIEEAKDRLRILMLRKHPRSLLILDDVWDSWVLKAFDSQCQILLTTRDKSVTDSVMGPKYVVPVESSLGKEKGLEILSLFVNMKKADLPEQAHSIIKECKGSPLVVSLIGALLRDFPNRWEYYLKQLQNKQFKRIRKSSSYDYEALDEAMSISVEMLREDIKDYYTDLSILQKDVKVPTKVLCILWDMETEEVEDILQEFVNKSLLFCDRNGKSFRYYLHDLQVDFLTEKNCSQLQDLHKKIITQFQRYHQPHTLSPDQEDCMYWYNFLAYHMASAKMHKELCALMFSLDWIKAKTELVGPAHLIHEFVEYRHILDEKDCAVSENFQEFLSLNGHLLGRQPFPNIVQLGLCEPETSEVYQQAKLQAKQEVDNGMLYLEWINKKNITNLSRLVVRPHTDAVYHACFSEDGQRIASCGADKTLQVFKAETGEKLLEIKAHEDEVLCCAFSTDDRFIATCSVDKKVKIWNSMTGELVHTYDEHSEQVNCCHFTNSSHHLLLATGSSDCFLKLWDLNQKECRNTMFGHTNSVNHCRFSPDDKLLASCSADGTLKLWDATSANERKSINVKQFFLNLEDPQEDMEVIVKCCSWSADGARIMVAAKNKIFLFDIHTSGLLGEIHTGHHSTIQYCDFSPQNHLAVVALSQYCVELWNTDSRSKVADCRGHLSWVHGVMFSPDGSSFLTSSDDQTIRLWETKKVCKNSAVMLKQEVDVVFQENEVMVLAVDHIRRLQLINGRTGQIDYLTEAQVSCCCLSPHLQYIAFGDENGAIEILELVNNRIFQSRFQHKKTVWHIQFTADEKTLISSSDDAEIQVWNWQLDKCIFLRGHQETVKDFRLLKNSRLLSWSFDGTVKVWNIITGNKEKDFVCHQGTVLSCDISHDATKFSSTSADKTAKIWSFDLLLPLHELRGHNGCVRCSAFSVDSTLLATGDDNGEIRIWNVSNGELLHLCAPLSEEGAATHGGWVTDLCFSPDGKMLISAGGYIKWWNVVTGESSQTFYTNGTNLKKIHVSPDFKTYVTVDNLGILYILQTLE

Genome polyprotein = Genome polyprotein (dengue virus type 2, UniProt P29990); test: Dengue-2 NS5 methyltransferase inhibitors, primary screen, biochemical, confirmation dose response (AID 588689); type: functional
[3] = target: Serine/threonine-protein phosphatase (Homo sapiens, UniProt Q9BPW0); test: PP5 phosphatase inhibitors, dose response, biochemical, fluorescence (AID 2395)
[4] = target: Serine/threonine-protein phosphatase PP1-alpha catalytic subunit (Homo sapiens, UniProt P62136); test: PP1 phosphatase inhibitors, dose response, biochemical, fluorescence (AID 2394)
Bcl-2-related protein A1 [5] = target: T2, Bcl-2-related protein A1 (Mus musculus, UniProt Q07440); test: Bfl-1 binding inhibitors, SAR follow-up, biochemical, fluorescence polarization (AID 1070)
T2 sequence (Q07440 whole entry): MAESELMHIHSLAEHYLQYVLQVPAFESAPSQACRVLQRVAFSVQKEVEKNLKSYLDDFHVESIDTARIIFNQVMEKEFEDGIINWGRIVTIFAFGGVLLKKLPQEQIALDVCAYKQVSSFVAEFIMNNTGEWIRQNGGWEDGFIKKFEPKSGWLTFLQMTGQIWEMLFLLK

[6] = target: Glyceraldehyde-3-phosphate dehydrogenase (Homo sapiens, UniProt P04406)
Bcl-2-related protein A1 [7] = target: T2, Bcl-2-related protein A1; test: Bfl-1 inhibitors blocking BH3 peptide binding, confirmation, biochemical, TR-FRET, mouse Bfl-1 (AID 621);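 further: TR-FRET binding of GST-Bfl-1 to FITC-labelled Bid peptide via terbium antibody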
Cytochrome P450 1A2 = target: T3, Cytochrome P450 1A2 (Homo sapiens, UniProt P05177);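 further: PubChem cytochrome P450 panel assay, CYP1A2 panel member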
T3 sequence (P05177 whole entry): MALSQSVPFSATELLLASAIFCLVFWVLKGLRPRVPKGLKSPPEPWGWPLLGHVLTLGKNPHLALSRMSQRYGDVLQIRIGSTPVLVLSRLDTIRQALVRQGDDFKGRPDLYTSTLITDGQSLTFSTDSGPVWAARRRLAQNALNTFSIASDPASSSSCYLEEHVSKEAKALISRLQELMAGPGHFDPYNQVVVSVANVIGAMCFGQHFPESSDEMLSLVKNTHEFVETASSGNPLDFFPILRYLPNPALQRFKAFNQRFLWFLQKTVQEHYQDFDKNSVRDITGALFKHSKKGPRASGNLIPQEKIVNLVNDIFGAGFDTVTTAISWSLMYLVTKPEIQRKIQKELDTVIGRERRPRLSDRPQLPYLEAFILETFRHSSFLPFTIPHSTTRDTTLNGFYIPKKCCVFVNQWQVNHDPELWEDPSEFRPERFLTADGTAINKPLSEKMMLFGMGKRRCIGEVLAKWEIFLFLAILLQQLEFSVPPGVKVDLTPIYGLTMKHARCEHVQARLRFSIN

H4 = test: Luminescence Cell-Based Dose Response HTS to Identify Activators of 5'UTR Stem-Loop Driven Prion Protein mRNA Translation in H4 Neuroglioblastoma Cells. [Related pubchem assays: 1829 (Project Summary), 1814 (Primary HTS)]; type: functional; conditions: Homo sapiens
[8] = Luminescence Cell-Based Dose Confirmation to Identify Activators of 5'UTR Stem-Loop Driven Alpha-Synuclein mRNA Translation in H4 Neuroglioblastoma Cells. [Related pubchem assays: 1829 (Project Summary), 1814 (Primary HTS)]; type: functional
Cytochrome P450 2C19 = Cytochrome P450 2C19 (Homo sapiens, UniProt P33261); test: Cytochrome panel assay with activity outcomes. Panel member name: p450-cyp2c19 Compounds with AC50 equal or less than 10 uM are considered active; type: functional; conditions: read-out: AC50
Estrogen receptor = target: T4, Estrogen receptor (Homo sapiens, UniProt P03372);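 further: potency for inhibiting coactivator peptide recruitment to the receptor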
T4 sequence (P03372 whole entry): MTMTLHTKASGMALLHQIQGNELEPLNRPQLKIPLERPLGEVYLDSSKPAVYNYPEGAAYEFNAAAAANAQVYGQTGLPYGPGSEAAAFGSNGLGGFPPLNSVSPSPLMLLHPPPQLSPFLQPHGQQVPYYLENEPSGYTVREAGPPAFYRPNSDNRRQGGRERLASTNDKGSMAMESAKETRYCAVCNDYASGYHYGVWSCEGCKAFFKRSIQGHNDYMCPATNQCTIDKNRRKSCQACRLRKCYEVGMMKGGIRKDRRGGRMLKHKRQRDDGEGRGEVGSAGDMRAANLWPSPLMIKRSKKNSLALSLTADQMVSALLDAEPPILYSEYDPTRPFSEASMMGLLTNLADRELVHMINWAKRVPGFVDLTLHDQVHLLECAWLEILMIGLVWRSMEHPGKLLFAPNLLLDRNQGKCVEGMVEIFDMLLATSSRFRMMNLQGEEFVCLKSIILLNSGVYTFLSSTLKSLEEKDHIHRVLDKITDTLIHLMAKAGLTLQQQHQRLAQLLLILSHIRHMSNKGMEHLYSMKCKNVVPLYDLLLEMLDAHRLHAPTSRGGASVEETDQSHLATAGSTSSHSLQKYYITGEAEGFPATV

[9] = Luminescence Cell-Based Dose Retest to Confirm Inhibitors of Cancer Stem Cells. [Related pubchem assays (depositor defined):AID2717, AID2721]; type: functional; conditions: Homo sapiens
[10] = Luminescence Cell-Based Dose Response to Identify Activators of 5'UTR Stem-Loop Driven Prion Protein mRNA Translation in H4-C Neuroglioblastoma Cells. [Related pubchem assays: 1829 (Project Summary), 1814 (Primary HTS)]; type: functional
[11] = Luminescence Cell-Based Dose Response to Identify Activators of Luciferase Translation or Activity in H4-C Neuroglioblastoma Cells. [Related pubchem assays: 1829 (Project Summary), 1814 (Primary HTS)]; type: functional
Cytochrome P450 2C9 = Cytochrome P450 2C9 (Homo sapiens, UniProt P11712)
[12] = Luminescence Cell-Based Dose Response HTS to Identify Activators of Luciferase Translation or Activity in H4 […] Cells. [Related pubchem assays: 1829 (Project Summary), 1814 (Primary HTS)]; type: functional
Vero = test: host cell cytotoxicity of antiviral hits, dose response, cytotoxicity control for West Nile virus antiviral project, secondary assay (AID 1650); type: functional; conditions: Chlorocebus sabaeus
[13] = Vero cell cytotoxicity, dose response, cytotoxicity control for Vif-APOBEC3G degradation inhibitor project, Vero cells (AID 1117358); type: functional; conditions: Human immunodeficiency virus 1, Vero
Protein RecA = target: T5, Protein RecA (Mycobacterium tuberculosis, UniProt P9WHJ3); test: Fluorescence Cell-Free Homogeneous Dose Retest to Identify Inhibitors of RecA-Intein Splicing Activity. [Related pubchem assays (depositor defined):AID2097, AID2223, AID489010, AID492950]; type: functional
T5 sequence (P9WHJ3 whole entry): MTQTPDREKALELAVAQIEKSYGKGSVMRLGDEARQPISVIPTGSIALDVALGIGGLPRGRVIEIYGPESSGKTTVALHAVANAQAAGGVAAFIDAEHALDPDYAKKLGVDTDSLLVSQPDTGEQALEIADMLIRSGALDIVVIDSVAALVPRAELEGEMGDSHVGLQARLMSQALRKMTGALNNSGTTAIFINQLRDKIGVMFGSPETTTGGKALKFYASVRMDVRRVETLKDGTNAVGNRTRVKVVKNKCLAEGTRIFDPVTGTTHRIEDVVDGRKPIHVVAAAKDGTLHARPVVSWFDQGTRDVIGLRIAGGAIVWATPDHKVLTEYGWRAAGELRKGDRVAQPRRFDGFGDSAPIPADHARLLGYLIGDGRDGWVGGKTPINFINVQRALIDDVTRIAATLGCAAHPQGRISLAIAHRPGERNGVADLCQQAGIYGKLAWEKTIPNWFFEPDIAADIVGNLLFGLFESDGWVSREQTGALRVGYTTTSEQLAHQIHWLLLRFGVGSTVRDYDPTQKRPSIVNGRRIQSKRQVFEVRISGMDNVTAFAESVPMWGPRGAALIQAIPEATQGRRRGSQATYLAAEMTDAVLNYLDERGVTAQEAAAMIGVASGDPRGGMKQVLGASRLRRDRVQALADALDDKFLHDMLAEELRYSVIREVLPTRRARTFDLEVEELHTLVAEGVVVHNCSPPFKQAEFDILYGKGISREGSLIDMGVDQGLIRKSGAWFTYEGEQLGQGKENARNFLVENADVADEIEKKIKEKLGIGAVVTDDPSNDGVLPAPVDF

Cytochrome P450 2D6 = Cytochrome P450 2D6 (Homo sapiens, UniProt P10635);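 further: CYP2D6 member of a cytochrome P450 panel assay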
[14] = target: T6, Replicative DNA helicase DnaB (Mycobacterium tuberculosis, UniProt P9WMR3); test: DnaB intein splicing inhibitors, dose response, biochemical, cell-free fluorescence (AID 449749); type: functional
T6 sequence (P9WMR3 whole entry): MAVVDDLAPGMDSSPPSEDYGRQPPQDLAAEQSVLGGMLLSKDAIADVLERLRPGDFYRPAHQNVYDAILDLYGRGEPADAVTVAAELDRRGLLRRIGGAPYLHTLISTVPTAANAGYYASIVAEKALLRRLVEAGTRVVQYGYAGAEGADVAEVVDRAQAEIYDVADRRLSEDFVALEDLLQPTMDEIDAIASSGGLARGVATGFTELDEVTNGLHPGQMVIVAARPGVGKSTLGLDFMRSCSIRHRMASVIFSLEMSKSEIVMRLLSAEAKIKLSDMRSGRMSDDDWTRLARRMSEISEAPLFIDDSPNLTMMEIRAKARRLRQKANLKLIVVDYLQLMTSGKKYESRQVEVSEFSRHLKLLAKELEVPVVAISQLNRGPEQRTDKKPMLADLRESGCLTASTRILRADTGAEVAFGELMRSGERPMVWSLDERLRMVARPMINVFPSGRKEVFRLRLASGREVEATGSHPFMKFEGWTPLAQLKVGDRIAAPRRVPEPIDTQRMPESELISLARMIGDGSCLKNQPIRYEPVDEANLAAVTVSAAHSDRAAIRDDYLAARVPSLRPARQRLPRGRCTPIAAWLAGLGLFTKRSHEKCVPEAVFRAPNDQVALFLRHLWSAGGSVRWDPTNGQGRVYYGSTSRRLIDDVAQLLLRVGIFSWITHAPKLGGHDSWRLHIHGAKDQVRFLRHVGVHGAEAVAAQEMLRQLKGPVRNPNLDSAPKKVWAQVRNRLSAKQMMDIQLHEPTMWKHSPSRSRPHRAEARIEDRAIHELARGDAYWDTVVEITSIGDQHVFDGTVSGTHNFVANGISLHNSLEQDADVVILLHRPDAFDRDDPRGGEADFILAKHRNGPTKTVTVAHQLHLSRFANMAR

[15] = target: Voltage-gated inwardly rectifying potassium channel KCNH2 (Homo sapiens, UniProt Q12809); test: hERG protection from proarrhythmic block, potency, dose response, cell-based, thallium flux (AID 2121); type: ADME

Chain of Serine/threonine-protein phosphatase PP1-alpha catalytic subunit (P62136 whole entry): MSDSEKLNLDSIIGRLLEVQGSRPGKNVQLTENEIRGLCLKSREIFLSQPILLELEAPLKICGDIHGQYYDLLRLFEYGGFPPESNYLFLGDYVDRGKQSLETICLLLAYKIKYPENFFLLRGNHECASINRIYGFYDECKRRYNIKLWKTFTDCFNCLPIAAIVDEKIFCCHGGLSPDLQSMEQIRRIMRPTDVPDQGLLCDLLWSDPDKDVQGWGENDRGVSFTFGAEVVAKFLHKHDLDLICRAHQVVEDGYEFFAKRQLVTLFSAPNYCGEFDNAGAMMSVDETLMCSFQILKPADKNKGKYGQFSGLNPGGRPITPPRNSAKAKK
Chain of Serine/threonine-protein phosphatase (Q9BPW0 whole entry): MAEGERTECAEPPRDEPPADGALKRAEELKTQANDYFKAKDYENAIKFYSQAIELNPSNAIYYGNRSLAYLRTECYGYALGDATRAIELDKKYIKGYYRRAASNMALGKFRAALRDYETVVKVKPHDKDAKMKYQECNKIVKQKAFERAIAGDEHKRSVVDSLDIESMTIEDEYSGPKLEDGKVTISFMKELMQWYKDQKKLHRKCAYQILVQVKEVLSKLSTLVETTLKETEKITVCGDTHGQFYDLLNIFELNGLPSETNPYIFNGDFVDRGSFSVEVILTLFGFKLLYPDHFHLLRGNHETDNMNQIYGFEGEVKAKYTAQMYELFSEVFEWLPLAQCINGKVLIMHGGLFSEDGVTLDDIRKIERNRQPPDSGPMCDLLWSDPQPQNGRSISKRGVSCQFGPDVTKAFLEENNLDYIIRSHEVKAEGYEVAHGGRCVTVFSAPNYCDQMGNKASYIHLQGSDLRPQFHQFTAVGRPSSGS
Chain of Cytochrome P450 2C19 (P33261 whole entry): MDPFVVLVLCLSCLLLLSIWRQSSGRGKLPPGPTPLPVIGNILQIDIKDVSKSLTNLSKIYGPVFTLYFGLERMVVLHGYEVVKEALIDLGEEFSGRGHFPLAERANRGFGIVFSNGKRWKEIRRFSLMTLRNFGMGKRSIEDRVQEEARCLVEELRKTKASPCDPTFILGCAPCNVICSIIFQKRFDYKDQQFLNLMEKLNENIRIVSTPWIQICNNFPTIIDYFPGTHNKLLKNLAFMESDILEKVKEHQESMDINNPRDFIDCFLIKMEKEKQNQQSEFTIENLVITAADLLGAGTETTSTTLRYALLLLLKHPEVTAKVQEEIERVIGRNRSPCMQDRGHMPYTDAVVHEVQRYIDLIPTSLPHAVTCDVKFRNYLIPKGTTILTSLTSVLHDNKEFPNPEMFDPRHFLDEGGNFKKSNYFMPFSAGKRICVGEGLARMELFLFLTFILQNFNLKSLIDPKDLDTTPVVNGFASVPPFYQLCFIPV
Chain of Glyceraldehyde-3-phosphate dehydrogenase (P04406 whole entry): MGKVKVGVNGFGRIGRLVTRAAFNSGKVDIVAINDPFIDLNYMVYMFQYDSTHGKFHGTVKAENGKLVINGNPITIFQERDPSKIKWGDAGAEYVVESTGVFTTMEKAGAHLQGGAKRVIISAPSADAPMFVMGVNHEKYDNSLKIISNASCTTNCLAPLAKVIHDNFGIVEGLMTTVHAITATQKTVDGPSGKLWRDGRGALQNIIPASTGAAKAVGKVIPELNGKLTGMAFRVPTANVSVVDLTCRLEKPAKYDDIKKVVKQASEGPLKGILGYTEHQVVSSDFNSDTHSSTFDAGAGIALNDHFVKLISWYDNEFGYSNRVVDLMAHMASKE
Chain of Glucose-6-phosphate 1-dehydrogenase (P11413 whole entry): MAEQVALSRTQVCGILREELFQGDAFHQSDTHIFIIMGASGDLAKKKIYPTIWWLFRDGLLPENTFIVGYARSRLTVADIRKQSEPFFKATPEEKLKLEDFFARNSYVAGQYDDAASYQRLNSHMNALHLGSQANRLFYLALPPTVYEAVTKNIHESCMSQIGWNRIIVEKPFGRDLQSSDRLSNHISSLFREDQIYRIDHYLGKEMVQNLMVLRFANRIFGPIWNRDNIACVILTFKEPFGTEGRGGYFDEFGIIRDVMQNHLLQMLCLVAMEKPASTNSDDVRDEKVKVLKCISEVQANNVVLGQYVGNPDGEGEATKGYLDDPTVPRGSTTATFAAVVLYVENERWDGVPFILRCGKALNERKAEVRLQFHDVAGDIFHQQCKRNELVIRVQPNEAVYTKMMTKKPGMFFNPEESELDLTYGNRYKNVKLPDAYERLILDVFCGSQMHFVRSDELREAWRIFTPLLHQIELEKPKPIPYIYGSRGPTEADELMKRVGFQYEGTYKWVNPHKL
Chain of Genome polyprotein (P29990 2492-3391 limits assumed): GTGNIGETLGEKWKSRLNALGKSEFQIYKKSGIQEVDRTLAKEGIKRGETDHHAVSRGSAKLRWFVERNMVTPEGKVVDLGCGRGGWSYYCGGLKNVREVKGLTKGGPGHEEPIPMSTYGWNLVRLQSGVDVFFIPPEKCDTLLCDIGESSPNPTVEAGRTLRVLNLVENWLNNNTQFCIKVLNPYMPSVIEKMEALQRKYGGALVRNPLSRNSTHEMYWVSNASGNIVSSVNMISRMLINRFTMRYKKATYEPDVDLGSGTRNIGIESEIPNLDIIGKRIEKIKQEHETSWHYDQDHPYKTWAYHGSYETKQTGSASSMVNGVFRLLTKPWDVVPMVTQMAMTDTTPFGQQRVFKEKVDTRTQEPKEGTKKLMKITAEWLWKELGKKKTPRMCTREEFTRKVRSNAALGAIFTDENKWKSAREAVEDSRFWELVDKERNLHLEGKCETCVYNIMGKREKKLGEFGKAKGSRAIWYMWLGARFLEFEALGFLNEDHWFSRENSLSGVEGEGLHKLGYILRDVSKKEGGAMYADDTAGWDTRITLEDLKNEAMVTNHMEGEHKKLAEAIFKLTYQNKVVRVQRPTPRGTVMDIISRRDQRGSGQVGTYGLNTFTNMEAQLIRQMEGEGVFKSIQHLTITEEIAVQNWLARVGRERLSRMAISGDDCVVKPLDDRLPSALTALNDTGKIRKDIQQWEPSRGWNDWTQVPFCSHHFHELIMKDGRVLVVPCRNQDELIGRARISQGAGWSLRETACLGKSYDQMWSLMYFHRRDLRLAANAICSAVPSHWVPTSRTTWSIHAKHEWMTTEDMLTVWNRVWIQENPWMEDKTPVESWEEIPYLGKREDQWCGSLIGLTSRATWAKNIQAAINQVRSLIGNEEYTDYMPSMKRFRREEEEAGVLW
Chain of Cytochrome P450 2D6 (P10635 whole entry): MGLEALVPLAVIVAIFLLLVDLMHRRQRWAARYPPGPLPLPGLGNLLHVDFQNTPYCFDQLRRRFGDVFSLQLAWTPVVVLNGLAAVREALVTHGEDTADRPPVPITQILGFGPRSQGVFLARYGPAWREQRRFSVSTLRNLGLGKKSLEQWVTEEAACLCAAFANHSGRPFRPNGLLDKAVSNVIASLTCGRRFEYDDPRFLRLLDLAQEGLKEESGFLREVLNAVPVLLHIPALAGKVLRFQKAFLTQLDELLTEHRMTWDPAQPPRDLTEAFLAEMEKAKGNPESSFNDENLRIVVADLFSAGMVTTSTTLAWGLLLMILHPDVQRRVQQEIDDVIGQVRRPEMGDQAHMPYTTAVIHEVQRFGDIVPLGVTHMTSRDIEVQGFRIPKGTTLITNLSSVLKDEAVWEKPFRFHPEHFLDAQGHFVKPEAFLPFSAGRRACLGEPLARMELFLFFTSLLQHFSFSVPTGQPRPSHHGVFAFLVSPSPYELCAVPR
Chain of Cytochrome P450 2C9 (P11712 whole entry): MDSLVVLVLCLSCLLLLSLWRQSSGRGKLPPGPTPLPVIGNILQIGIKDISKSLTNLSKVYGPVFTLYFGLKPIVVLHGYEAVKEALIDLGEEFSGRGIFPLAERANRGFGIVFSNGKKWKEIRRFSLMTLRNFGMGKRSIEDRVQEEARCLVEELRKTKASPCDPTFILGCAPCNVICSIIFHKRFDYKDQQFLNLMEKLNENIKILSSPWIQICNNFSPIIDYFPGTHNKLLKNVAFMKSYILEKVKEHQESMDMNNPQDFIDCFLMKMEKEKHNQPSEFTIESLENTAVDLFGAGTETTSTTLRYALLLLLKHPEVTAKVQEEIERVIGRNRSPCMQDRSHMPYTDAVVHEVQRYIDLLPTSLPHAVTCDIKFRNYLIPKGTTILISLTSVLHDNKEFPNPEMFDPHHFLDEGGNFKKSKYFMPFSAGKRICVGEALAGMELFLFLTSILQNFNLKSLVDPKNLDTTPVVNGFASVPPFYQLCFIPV

SMILES: COC(=O)CCC(=O)OC1(C)C(=O)C2=CN(C3CC3)C(c3ccc(OC)cc3)=CC2=C(Br)C1=O (centres undefined)
- IC50 [1]: 31.1 µM (inactive)
- IC50 [2]: 22 µM (active)
- IC50 (Genome polyprotein): > 100 µM (active)
- IC50 [3]: 8.96 µM (active)
- IC50 [4]: 46.2 µM (not active)

SMILES: O=C1C(Cl)=C(N2CCOCC2)C(=O)N1c1cccc(Cl)c1Cl
- IC50 (Bcl-2-related protein A1 [5]): 4.05 µM (active)
- IC50 [6]: > 10 µM (inconclusive)
- IC50 (Bcl-2-related protein A1 [7]): 1.52 µM (active)

SMILES: CCCc1cc2c(=O)c(-c3ccc4c(c3)OCCO4)coc2cc1OC(=O)c1ccco1
- AC50 (Cytochrome P450 1A2): 2 µM (inconclusive)
- EC50 (H4): > 120 µM (not active)
- EC50 [8]: 0.388 µM (active)
- AC50 (Cytochrome P450 2C19): 2.51 µM (inconclusive)
- IC50 (Estrogen receptor): > 50 µM (not active)
- AC50 [9]: 3.85 µM (active)
- EC50 [10]: 0.306 µM (active)
- EC50 [11]: 0.376 µM (active)
- AC50 (Cytochrome P450 2C9): inconclusive
- EC50 [12]: < 0.1 µM (active)

SMILES: Cc1cc(C)n(Cc2ccc(NC(=O)c3nn(C)cc3[N+](=O)[O-])cc2)n1
- CC50 (Vero): 9.3 µM (active)
- CC50 [13]: 20.8 µM (active)

SMILES: CN1C(=O)/C(=N\OC(=O)c2cccc3ccccc23)c2ccccc21
- EC50 (Protein RecA): 15 µM (active)
- AC50 (Cytochrome P450 2D6): 12.6 µM (inconclusive)
- AC50 [14]: 7.38 µM (active)
- EC50 [15]: 1.17 µM (active)
